Test results: patent publication US12049450B2, “Pyridyloxy-carboxylate derivative and preparation method therefor, herbicidal composition, and use” (Qingdao Kingagroot Chemical Compound Co., Ltd., priority 2018, dated 2024)

Legend:
Type in all cases: in vivo
Soybean = assay: Spray drift test, application by unmanned gyroplane, soybean field at 10 meters; details: 600 g/ha, gyroplane at 1 m, gentle breeze
Method: Broadleaf crops are very sensitive to hormonal herbicides, therefore crop injuries are more likely to occur in case of spray drifting. Tests were conducted in gentle breeze for the compounds of the present invention. The formulation of the compounds of the present invention was applied by DJI unmanned gyroplane with application height of 1 m and water volume of 20 kg/ha. The use rate was 600 g/ha. The active ingredient was dissolved by acetone and diluted to aqueous solution of Tween 80. There's a soybean field at 10 meters from the application area and the height of soybean plants were about 15 cm at the application time.

Echinochloa crusgalli = assay: Post-emergence test experiment (greenhouse pot, spray at 2-3 leaf stage); details: 1000 g/ha; post-emergence spray at 2-3 leaf stage; assessed after 3 weeks; fresh weight inhibition rate
Method in brief: (§1)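 Weed seeds sown in soil-filled pots in greenhouse, sprayed at 2-3 leaf stage (2 weeks after sowing) with compound in acetone/tween-80 plus methyl oleate emulsible concentrate (1.5 L/ha) diluted in water. Fresh-weight growth inhibition scored after 3 weeks on 0-5 scale (5: >85%, 0: <5%).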

Monochoria vaginalis = assay: as above; details: 1000 g/ha; post-emergence spray at 2-3 leaf stage; assessed after 3 weeks; fresh weight inhibition rate
Method in brief: as §1

Abutilon theophrasti = assay: as above; details: 1000 g/ha; post-emergence spray at 2-3 leaf stage; assessed after 3 weeks; fresh weight inhibition rate
Method in brief: as §1

Digitaria sanguinalis = assay: as above; details: 1000 g/ha; post-emergence spray at 2-3 leaf stage; assessed after 3 weeks; fresh weight inhibition rate
Method in brief: as §1

Galium spurium = assay: as above; details: 1000 g/ha; post-emergence spray at 2-3 leaf stage; assessed after 3 weeks; fresh weight inhibition rate
Method in brief: as §1

Row | SMILES | Soybean, injury level by spray drift (Soybean) | Activity level (growth inhibition rate) Echinochloa crusgalli (Echinochloa crusgalli) | Activity level (growth inhibition rate) Monochoria Vaginalis (Monochoria vaginalis) | Activity level (growth inhibition rate) Abutilon theophrasti (Abutilon theophrasti) | Activity level (growth inhibition rate) Digitaria sanguinalis (Digitaria sanguinalis) | Activity level (growth inhibition rate) Galium spurium (Galium spurium)
1 | CC(Oc1ncc(Cl)c(N)c1Cl)C(=O)OCc1ccccc1 (stereo not shown) [Compound 3] | 0 (Level 0: the growth inhibition rate is less than 5%) | 5 (Level 5: the growth inhibition rate is greater than 85%) | 5 (Level 5: the growth inhibition rate is greater than 85%) | 5 (Level 5: the growth inhibition rate is greater than 85%) | 5 (Level 5: the growth inhibition rate is greater than 85%) | 5 (Level 5: the growth inhibition rate is greater than 85%)
2 | Nc1c(Cl)c(F)nc(OC(C(=O)OCc2ccccc2)c2cccs2)c1Cl (stereo not shown) [Compound 54] | 0 (Level 0: the growth inhibition rate is less than 5%) |  | 5 (Level 5: the growth inhibition rate is greater than 85%) | 5 (Level 5: the growth inhibition rate is greater than 85%) |  | 5 (Level 5: the growth inhibition rate is greater than 85%)
3 | CC(Oc1nc(F)c(F)c(N)c1F)C(=O)OCc1ccccc1 (stereo not shown) [Compound 1] | 0 (Level 0: the growth inhibition rate is less than 5%) | 5 (Level 5: the growth inhibition rate is greater than 85%) | 5 (Level 5: the growth inhibition rate is greater than 85%) | 5 (Level 5: the growth inhibition rate is greater than 85%) | 5 (Level 5: the growth inhibition rate is greater than 85%) | 5 (Level 5: the growth inhibition rate is greater than 85%)
4 | N#CC(Oc1nc(F)c(Cl)c(N)c1Cl)C(=O)OCc1ccccc1 (stereo not shown) [Compound 43] | 0 (Level 0: the growth inhibition rate is less than 5%) |  | 5 (Level 5: the growth inhibition rate is greater than 85%) | 5 (Level 5: the growth inhibition rate is greater than 85%) |  | 5 (Level 5: the growth inhibition rate is greater than 85%)
5 | Nc1c(Cl)c(F)nc(OC(Cc2ccccc2)C(=O)OCc2ccccc2)c1Cl (stereo not shown) [Compound 53] | 0 (Level 0: the growth inhibition rate is less than 5%) |  | 5 (Level 5: the growth inhibition rate is greater than 85%) | 5 (Level 5: the growth inhibition rate is greater than 85%) |  | 5 (Level 5: the growth inhibition rate is greater than 85%)
6 | CC(Oc1nc(F)c(Cl)c(N)c1Cl)C(=O)SCc1ccc(-c2ccccc2)cc1 (racemic) [Compound 113] | 0 (Level 0: the growth inhibition rate is less than 5%) | 5 (Level 5: the growth inhibition rate is greater than 85%) | 5 (Level 5: the growth inhibition rate is greater than 85%) | 5 (Level 5: the growth inhibition rate is greater than 85%) | 5 (Level 5: the growth inhibition rate is greater than 85%) | 5 (Level 5: the growth inhibition rate is greater than 85%)
7 | CC(C)C(Oc1nc(F)c(Cl)c(N)c1Cl)C(=O)OCc1ccccc1 (stereo not shown) [Compound 27] | 0 (Level 0: the growth inhibition rate is less than 5%) |  | 5 (Level 5: the growth inhibition rate is greater than 85%) | 5 (Level 5: the growth inhibition rate is greater than 85%) |  | 5 (Level 5: the growth inhibition rate is greater than 85%)
8 | CC(Oc1nc(F)c(Cl)c(N)c1Cl)C(=O)OCc1c(F)ccc(F)c1F (stereo not shown) [Compound 83] | 0 (Level 0: the growth inhibition rate is less than 5%) | 5 (Level 5: the growth inhibition rate is greater than 85%) | 5 (Level 5: the growth inhibition rate is greater than 85%) | 5 (Level 5: the growth inhibition rate is greater than 85%) | 5 (Level 5: the growth inhibition rate is greater than 85%) | 5 (Level 5: the growth inhibition rate is greater than 85%)
9 | CC(Oc1nc(F)c(Cl)c(NCc2ccco2)c1Cl)C(=O)OCc1ccccc1 (stereo not shown) [Compound 193] | 0 (Level 0: the growth inhibition rate is less than 5%) | 5 (Level 5: the growth inhibition rate is greater than 85%) | 5 (Level 5: the growth inhibition rate is greater than 85%) | 5 (Level 5: the growth inhibition rate is greater than 85%) | 5 (Level 5: the growth inhibition rate is greater than 85%) | 5 (Level 5: the growth inhibition rate is greater than 85%)
10 | CC(Oc1nc(F)c(Cl)c(N)c1Cl)C(=O)OCc1cc(C(F)(F)F)ccc1F (stereo not shown) [Compound 82] | 0 (Level 0: the growth inhibition rate is less than 5%) | 5 (Level 5: the growth inhibition rate is greater than 85%) | 5 (Level 5: the growth inhibition rate is greater than 85%) | 5 (Level 5: the growth inhibition rate is greater than 85%) | 5 (Level 5: the growth inhibition rate is greater than 85%) | 5 (Level 5: the growth inhibition rate is greater than 85%)
11 | Nc1c(Cl)c(F)nc(OC(C(=O)OCc2ccccc2)C(F)(F)F)c1Cl (stereo not shown) [Compound 41] | 0 (Level 0: the growth inhibition rate is less than 5%) |  | 5 (Level 5: the growth inhibition rate is greater than 85%) | 5 (Level 5: the growth inhibition rate is greater than 85%) |  | 5 (Level 5: the growth inhibition rate is greater than 85%)
12 | COC(Oc1nc(F)c(Cl)c(N)c1Cl)C(=O)SCc1ccccc1 (stereo not shown) [Compound 50] | 0 (Level 0: the growth inhibition rate is less than 5%) |  | 5 (Level 5: the growth inhibition rate is greater than 85%) | 5 (Level 5: the growth inhibition rate is greater than 85%) |  | 5 (Level 5: the growth inhibition rate is greater than 85%)
13 | CN(C)CC(Oc1nc(F)c(Cl)c(N)c1Cl)C(=O)SCc1ccccc1 (stereo not shown) [Compound 46] | 0 (Level 0: the growth inhibition rate is less than 5%) |  | 5 (Level 5: the growth inhibition rate is greater than 85%) | 5 (Level 5: the growth inhibition rate is greater than 85%) |  | 5 (Level 5: the growth inhibition rate is greater than 85%)
